Laboratory results from the NIST ThermoML archive (doi:10.1016/j.tca.2014.05.014).

Experiment: mn = molality of the nth substance listed, in mol/kg
Conditions: 101 kPa, Liquid; for speed of sound: Frequency=3 MHz, Sing-around technique in a fixed-path interferometer; for mass density: Vibrating tube method

CC(=O)NCC(=O)O [N-acetylglycine] + O
Conditions | mass density, 288.15 K [kg/m3] | mass density, 293.15 K [kg/m3] | mass density, 298.15 K [kg/m3] | mass density, 303.15 K [kg/m3] | mass density, 308.15 K [kg/m3] | speed of sound, 288.15 K [m/s] | speed of sound, 293.15 K [m/s] | speed of sound, 298.15 K [m/s] | speed of sound, 303.15 K [m/s] | speed of sound, 308.15 K [m/s]
m1 = 0.0203 | 1000.3 | 999.25 | 997.843 | 996.325 | 994.871 | 1467.5 | 1483.6 | 1497.7 | 1510 | 1520.3
m1 = 0.06014 | 1001.63 | 1000.6 | 999.038 | 997.499 | 996.032 | 1469.4 | 1485.4 | 1499 | 1511.4 | 1521.5
m1 = 0.1002 | 1002.81 | 1001.87 | 1000.36 | 998.819 | 997.262 | 1471.4 | 1486.8 | 1500.5 | 1512.4 | 1522.6
m1 = 0.1403 | 1004 | 1003.13 | 1001.63 | 1000.17 | 998.641 | 1473.3 | 1488.9 | 1502.1 | 1514.2 | 1524
m1 = 0.1695 | 1004.75 | 1003.97 | 1002.73 | 1001.25 | 999.567 | 1474.8 | 1489.9 | 1503.3 | 1514.9 | 1524.9
m1 = 0.2002 | 1005.54 | 1004.9 | 1003.76 | 1002.59 | 1001.25 | 1475.9 | 1491.4 | 1504.2 | 1515.6 | 1525.8
